Six molecules from US20100226983A1, “Compositions for treatment and prevention of acne, methods of making the compositions, and methods of use thereof” (NanoBio Corporation, priority 2009, published 2010) can be followed below.

Read-outs that look alike come from different tables or passages of the source. Some results are limits rather than exact numbers.

The subject of test [1] is P. acnes. The test is described as follows: MIC and MBC against 16 clinical isolates of P. acnes (broth microdilution, no sebum). The format is cell-based, Propionibacterium acnes. As to conditions: for MBC Range / MIC Range: NB-00X formulations as μg CPC/ml; for MIC50 / MIC90 / MBC: Cutibacterium acnes. The method, then:
The nanoemulsions (“NB-00X”) comprised, in an aqueous medium, soybean oil, Tween 20® as a nonionic surfactant, ethanol, cetylpyridinium chloride (CPC) as a cationic surfactant, EDTA, and water, and optionally, a thickening agent for the gel formulation.
Each dilution contained varying concentrations of soybean oil, Tween 20®, ethanol, CPC, and EDTA. Combination products were also evaluated; stock emulsions containing NB-00X gel (3 mg CPC/ml)+2% salicyclic acid or NB-00X gel+0.5% benzoyl peroxide (BPO) were serially diluted two-fold and each concentration was tested against 16 P. acnes isolates. In general, the standard methodology was followed for MIC and MBC determination.
Weighing of drugs and potency calculations were done as prescribed by Clinical and Laboratory Standards Institute (1). Dimethyl sulfoxide (DMSO) was used to prepare stock solutions of the water-insoluble compound tetracycline at 100× concentrations. […] Stock solutions of chlorhexidine and NB-00X were prepared at a 4× concentration in DI water.
To prepare intermediate concentrations, 100× stock solutions were serially diluted 1:1 using DMSO or DI water. Final concentrations were made by 1:50 or 1:1 dilutions in Wilkin Chalgren media (1) to give 2× of the test concentrations, with final DMSO concentrations at 1%. 50 μl of these drug concentrations were transferred to 96-well plates using multi-channel pipettes.
P. acnes strains grown on sheep blood agar for 24-48 hrs at 35° C. were used as the sources of inocula for susceptibility studies as per Clinical and Laboratory Standards Institute. […] Within 15 minutes, each well (except the negative growth controls) of the microtiter tray containing the serial dilutions of test compounds received 50 μl of inoculum, resulting into a log2 dilution of both drug and bug in each well. Verification of the colony-forming units in the inoculum was performed by diluting the adjusted inoculum preparation to […] and plating 100 μl on blood agar plate.
Microtiter and blood agar plates were incubated at 35-37° C. for 48 h in a 7.0 L AnaeroPack Jar (Mitsubishi gas chemical; No. 50-70) fitted with an anaerobic gas generating system (Misubishi, No. 10-01) and a dry anaerobic indicator strip (BBL, Becton, Dickinson & Co. #271051). MICs were read visually using a 96-well plate reader fitted with a magnifying mirror (Biodesign of New York). Because of the opacity of benzoyl peroxide, 20 μl of Cell Titer Blue (alamar blue from Promega G8080) was added after 48 hrs; the plates were incubated for an additional hour prior to reading. Colony-forming units were counted after 72 h of incubation to ensure that the initial inocula were between 2-5×10^6 cfu/ml.
The minimal bactericidal concentrations (MBC) for P. acnes were determined by plating 10 μl from the well determined to be the MIC plus 4 wells above the MIC on blood-supplemented Mueller-Hinton agar plate. Inoculated petri plates were incubated for 72 h at 35° C. under anaerobic conditions.

In test [2] the test system is P. acnes. The test is described as follows: MIC and MBC against 16 P. acnes isolates in the presence of 50% artificial sebum. The test is classed as cell-based, Propionibacterium acnes. As to conditions: for increase of MBC90/MBCs in the presence of sebum / increase of MIC90 in the presence of sebum / impact of sebum on microbiological activity (MIC90/MBC90): 50% sebum versus no sebum; for MIC90: Cutibacterium acnes, 16 P. acnes isolates, 50% artificial sebum; for impact of sebum on microbiological activity (MIC90/MBC90): up to the concentrations tested. On the procedure:
The nanoemulsions (“NB-002”) comprised, in an aqueous medium, soybean oil, Tween 20® as a nonionic surfactant, ethanol, cetylpyridinium chloride (CPC) as a cationic surfactant, EDTA, and water. Artificial sebum was prepared by adding the entire ingredients given in the Table 6 and heating at 60° C. in a water bath, with intermittent stirring until all solids melted resulting in to a clear yellow liquid ([…] et al., “Diffusion properties of model compounds in artificial sebum. Int. J. Pharm., 345:88-94 (2007)). To prepare intermediate concentrations, 100× stock solutions were serially diluted 1:1 using DMSO or DI water. Final concentrations were made by 1:50 dilutions in Wilkin Chalgren media to give 2× of the final test concentrations, with final DMSO concentrations at 1%. 50 μl of these drug concentrations were transferred to 96-well plates using multi-channel pipettes. Sebum was prewarmed to 50° C. and each well received 45 μl of sebum. After ten minutes at 35° C., five microliters of a P. acnes culture at 10^8 colony-forming units/ml was added to each well.

The mark [3] stands for this setting: 16 P. acnes isolates, no sebum, listed as chlorhexidine.
Where [4] appears, read: 16 P. acnes isolates, no sebum, read-out: MBC50.
Setting [5] is: 16 P. acnes isolates, no sebum, read-out: MBC90.

As usually defined, the MIC50 is the lowest concentration that inhibits either 50% of growth or 50% of the strains tested, depending on the study. In general, MIC90 refers to the lowest concentration that inhibits either 90% of growth or 90% of the strains tested, depending on the study. Regarding `[H]/N=C(\N/C(=N/[H])NCCCCCCNC(=N)NC(=N)Nc1ccc(Cl)cc1)Nc1ccc(Cl)cc1` [Chlorhexidine, chlorhexidine], in the test on P. acnes [1] (16 P. acnes isolates, no sebum), the “MBC Range” value was “≦10 μg/ml”, the “MIC Range” value is recorded as “≦10 μg/ml”, the MIC50 was ≤ 10 µg/mL and the MIC90 was ≤ 10 µg/mL. Moreover, in the test with P. acnes [1] (setting [3]), the “MBC Range” value was ≤ 10 µg/mL and the “MIC Range” value is ≤ 10 µg/mL. In addition, in the test with P. acnes [1] (setting [4]), the MBC is ≤ 10 µg/mL. Besides, the MBC in the test on P. acnes [1] (setting [5]) is ≤ 10 µg/mL. In the test with P. acnes [2], the “increase of MBC90/MBCs in the presence of sebum” value is “at least 125 fold”, the “increase of MIC90 in the presence of sebum” value was “at least eight-fold” and the MIC90 stood at 78 µg/mL.

For `CC[C@H]1OC(=O)[C@H](C)[C@@H](O[C@H]2C[C@@](C)(OC)[C@@H](O)[C@H](C)O2)[C@H](C)[C@@H](O[C@@H]2O[C@H](C)C[C@H](N(C)C)[C@H]2O)[C@](C)(O)C[C@@H](C)C(=O)[C@H](C)[C@@H](O)[C@]1(C)O` [Erythromycin, erythromycin], the MIC50 with P. acnes [1] (16 P. acnes isolates, no sebum) was 2 µg/mL. Also, the MBC with P. acnes [1] (setting [4]) is > 64 µg/mL. In addition, in the test with P. acnes [2], the “impact of sebum on microbiological activity (MIC90/MBC90)” value is listed as “did not impact”.

Regarding `O=C(O)c1ccccc1O` [Salicylic acid], in the test with P. acnes [1] (16 P. acnes isolates, no sebum), the MBC90 stood at 2000 µg/mL, the “MIC Range” value is 500 to 1000 µg/mL, the MIC50 was found to be 1000 µg/mL and the MIC90 turned out to be 1000 µg/mL. Further, in the test on P. acnes [1] (setting [4]), the MBC was 2000 µg/mL. The MBC with P. acnes [1] (setting [5]) was determined as 2000 µg/mL. Further, in the test with P. acnes [2], the “impact of sebum on microbiological activity (MIC90/MBC90)” value is “not significantly impacted” and the MIC90 amounted to 1000 µg/mL.

Regarding `O=C(OOC(=O)c1ccccc1)c1ccccc1` [Benzoyl peroxide, benzoyl peroxide], in the test on P. acnes [1] (16 P. acnes isolates, no sebum), the “MBC Range” value is 100 to 400 µg/mL, the “MIC Range” value is listed as “≦50-100 μg/ml”, the MIC50 came to 50 µg/mL and the MIC90 stood at 50 µg/mL. For the same molecule, the MBC in the test with P. acnes [1] (setting [4]) is 200 µg/mL. In addition, the MBC with P. acnes [1] (setting [5]) was found to be 200 µg/mL. In the test with P. acnes [2], the “increase of MBC90/MBCs in the presence of sebum” value is “eight-fold”, the “increase of MIC90 in the presence of sebum” value is recorded as “eight-fold” and the MIC90 was 400 µg/mL.

For the molecule `CCC[C@@H]1C[C@@H](C(=O)N[C@@H]([C@H]2O[C@H](SC)[C@H](O)[C@@H](O)[C@H]2O)[C@H](C)Cl)N(C)C1` [Clindamycin, clindamycin], the MIC50 with P. acnes [1] (16 P. acnes isolates, no sebum) came to 2 µg/mL. Besides, the MIC90 in the test on P. acnes [1] (16 P. acnes isolates, no sebum) is > 64 µg/mL; with P. acnes [2], > 64 µg/mL. Besides, the MBC in the test with P. acnes [1] (setting [4]) and in the test on P. acnes [1] (setting [5]) was > 64 µg/mL in each case.

`CN(C)[C@@H]1C(O)=C(C(N)=O)C(=O)[C@@]2(O)C(O)=C3C(=O)c4c(O)cccc4[C@@](C)(O)[C@H]3C[C@@H]12` [Tetracycline, tetracycline]: the MIC50 in the test with P. acnes [1] (16 P. acnes isolates, no sebum) stood at 1 µg/mL. The MIC90 in the test with P. acnes [1] (16 P. acnes isolates, no sebum) was > 32 µg/mL; with P. acnes [2], 32 µg/mL. Also, the MBC is > 16 µg/mL in the test on P. acnes [1] (setting [4]) and > 32 µg/mL with P. acnes [1] (setting [5]). Further, the isolates resistant in the test on P. acnes [1] (share of the P. acnes isolates resistant to the drug) is given as 44%.
